Data published in paper PMC6278341 (Molecules, 2018).
“And” between values parts separate entries of the source, which are not always exact repeats. Equal entries are not always repeated.

What was measured:
[1] = target: T1, D4 (Homo sapiens, UniProt P21917); assay: Off target binding, D4 receptor
T1 sequence (P21917 1-419): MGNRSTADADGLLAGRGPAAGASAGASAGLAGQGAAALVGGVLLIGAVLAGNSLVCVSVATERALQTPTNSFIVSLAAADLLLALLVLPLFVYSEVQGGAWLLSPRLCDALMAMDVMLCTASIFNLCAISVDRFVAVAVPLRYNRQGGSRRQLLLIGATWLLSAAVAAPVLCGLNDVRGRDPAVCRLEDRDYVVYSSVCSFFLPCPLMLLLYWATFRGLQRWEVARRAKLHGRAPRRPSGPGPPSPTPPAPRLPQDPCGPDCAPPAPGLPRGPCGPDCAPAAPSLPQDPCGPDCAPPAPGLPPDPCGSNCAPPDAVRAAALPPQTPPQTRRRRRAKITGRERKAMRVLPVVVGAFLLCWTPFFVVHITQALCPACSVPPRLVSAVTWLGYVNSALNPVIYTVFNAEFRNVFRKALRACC
Excerpt: (§1) Off target screening data were obtained through the NIDA Addiction Treatment Discovery Program contract (ADA151001) with Oregon Health & Science University.

[2] = target: 5-HT2A (Homo sapiens, UniProt P28223); assay: Off target binding, 5-HT2A receptor
Chain of 5-HT2A (P28223 whole entry, species assumed): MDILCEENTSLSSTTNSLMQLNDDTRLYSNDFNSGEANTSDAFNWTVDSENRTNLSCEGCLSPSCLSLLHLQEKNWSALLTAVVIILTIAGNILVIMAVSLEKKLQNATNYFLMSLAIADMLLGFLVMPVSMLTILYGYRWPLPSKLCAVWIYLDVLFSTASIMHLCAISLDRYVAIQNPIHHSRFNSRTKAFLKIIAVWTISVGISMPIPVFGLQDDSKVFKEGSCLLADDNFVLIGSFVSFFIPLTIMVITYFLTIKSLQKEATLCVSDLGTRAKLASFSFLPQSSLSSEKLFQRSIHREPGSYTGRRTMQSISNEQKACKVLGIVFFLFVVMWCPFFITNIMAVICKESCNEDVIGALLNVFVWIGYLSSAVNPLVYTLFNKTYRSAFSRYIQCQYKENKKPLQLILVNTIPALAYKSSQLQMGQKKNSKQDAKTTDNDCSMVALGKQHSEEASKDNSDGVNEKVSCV
Excerpt: as §1

[3] = target: D1 (Homo sapiens, UniProt P21728); assay: Off target binding, D1 receptor
Chain of D1 (P21728 whole entry): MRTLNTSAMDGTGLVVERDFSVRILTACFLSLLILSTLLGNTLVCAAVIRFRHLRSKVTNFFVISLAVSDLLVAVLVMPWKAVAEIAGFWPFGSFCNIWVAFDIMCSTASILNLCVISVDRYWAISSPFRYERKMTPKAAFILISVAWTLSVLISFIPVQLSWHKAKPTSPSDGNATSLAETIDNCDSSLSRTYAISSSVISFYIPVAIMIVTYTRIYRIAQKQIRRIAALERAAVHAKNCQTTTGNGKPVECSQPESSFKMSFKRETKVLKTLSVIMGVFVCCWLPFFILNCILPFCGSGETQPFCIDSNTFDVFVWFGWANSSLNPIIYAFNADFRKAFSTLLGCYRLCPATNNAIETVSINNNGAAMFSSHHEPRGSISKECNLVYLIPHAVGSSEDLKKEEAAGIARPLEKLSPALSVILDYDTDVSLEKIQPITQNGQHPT
Excerpt: as §1

[4] = target: T2, 5-HT1A (Homo sapiens, UniProt P08908); assay: Off target binding, 5-HT1A receptor
T2 sequence (P08908 1-422): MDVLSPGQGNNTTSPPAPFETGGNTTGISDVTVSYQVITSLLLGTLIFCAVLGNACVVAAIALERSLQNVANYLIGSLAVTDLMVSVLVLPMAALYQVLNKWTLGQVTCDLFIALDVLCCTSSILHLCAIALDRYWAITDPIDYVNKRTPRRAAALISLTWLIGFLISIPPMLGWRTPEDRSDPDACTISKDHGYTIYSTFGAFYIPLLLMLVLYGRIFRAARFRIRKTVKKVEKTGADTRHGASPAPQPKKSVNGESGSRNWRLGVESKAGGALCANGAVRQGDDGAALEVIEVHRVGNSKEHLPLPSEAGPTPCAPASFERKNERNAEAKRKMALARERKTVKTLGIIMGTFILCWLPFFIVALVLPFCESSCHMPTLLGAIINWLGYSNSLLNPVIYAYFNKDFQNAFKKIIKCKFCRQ
Excerpt: as §1

[5] = Tissue stability, monkey brain homogenate; format: in vitro ADME; details: at least 30 min at 37 °C
Procedure: (§2) These tissues were stored frozen at −70 °C but thawed on the day of analysis. […] Plasma analysis was performed as reported previously.

[6] = Tissue stability, human plasma and brain homogenate; format: in vitro ADME; details: at least 30 min at 37 °C
Procedure: as §2

[7] = Cell uptake percentage in rat whole blood in vitro; format: in vitro ADME; details: in vitro at 37 °C, n = 3
Procedure: The capillary tubes were then centrifuged, and Hct determined using a StatSpin® CritSpin™ Microhematocrit system (Los Angeles, CA, USA). Aliquots of anticoagulated rat blood (250 µL) were placed in three Eppendorf tubes (1.5 mL). […] Then whole blood (50 µL) was removed from each tube and counted in the γ-counter. The tubes were then centrifuged before removing plasma (50 µL) for γ-counting.

[8] = Plasma free fraction by ultrafiltration; format: in vitro ADME; details: human plasma, n = 3; read-out: Human plasma free fraction (fp)
Procedure: The mixture was incubated at room temperature for 10 min and then processed as described previously. The ultrafiltration components that contained high radioactivity were allowed to decay to within the optimal range of the γ-counter before they were counted. Quantification of the ultrafiltrates was performed gravimetrically.

[9] = target: T3, D3R (Rattus norvegicus, UniProt P19020); assay: PET imaging in rats; format: in vivo; details: for Peak brain radioactivity concentration: rat PET
T3 construct: from tissue; host or cells: brain of living Sprague-Dawley rats
T3 sequence (P19020 whole entry): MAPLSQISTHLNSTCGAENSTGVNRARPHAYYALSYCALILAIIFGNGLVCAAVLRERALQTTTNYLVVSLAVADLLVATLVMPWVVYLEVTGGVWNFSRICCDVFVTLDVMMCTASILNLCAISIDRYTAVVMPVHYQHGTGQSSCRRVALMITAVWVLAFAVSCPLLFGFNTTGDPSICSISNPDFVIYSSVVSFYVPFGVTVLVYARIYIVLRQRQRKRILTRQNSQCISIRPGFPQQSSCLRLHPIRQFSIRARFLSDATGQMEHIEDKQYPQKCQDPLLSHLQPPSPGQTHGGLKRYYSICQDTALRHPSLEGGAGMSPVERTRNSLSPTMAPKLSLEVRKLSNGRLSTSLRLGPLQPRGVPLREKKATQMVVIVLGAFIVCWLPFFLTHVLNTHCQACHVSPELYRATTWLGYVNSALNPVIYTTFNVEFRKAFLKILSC
Procedure: (§3) In some rats, tariquidar (16 mg/kg, i.v.) was administered at 15 min before radioligand injection. […] For experiments in mice (wild type and P-gp/BCRP knock-out; male; Taconic FVB.129P2-Abcb1a^tm1BorAbcb1b^tm1BorAbcg2^tm1AhsN7; 27 ± 1.1 g), scans were acquired with a microPET Focus 120 camera for a duration of 90 min. […] Monkey (male rhesus macaque, 9.9 kg) experiments were acquired using microPET Focus 220 (Siemens Medical Solutions, Knoxville TN) for a duration of 90 min.
(§4) Images were reconstructed using Fourier rebinning followed by 2D OSEM with attenuation correction for rats and monkey and without attenuation correction for mice. Scatter correction was applied only for monkey. Volume of interests were delineated manually for rats and mice, and with a co-registered MRI template for monkey. All radioactivity was decay-corrected and expressed as standardized uptake value (SUV) which is radioactivity concentration corrected for subject weight and administered dose. Time activity curves in SUV were obtained and compared between conditions. The PET data analysis was performed using PMOD.

[10] = tested on: D3R; assay: PET imaging in monkey; format: in vivo, rhesus macaque; details: for AUC 0-90 min higher than at baseline: tariquidar
Procedure: as §3, §4

[11] = Stability of formulated radioligand in saline containing ethanol; format: physicochemical; details: saline containing ethanol (10% v/v), up to 2.5 h; initial 99%
[12] = Lipophilicity (logD7.4), 1-octanol/sodium phosphate buffer; format: physicochemical; details: room temperature, 1-octanol/sodium phosphate buffer pH 7.4, n = 6
Procedure: The radioligand in ethanol/saline was placed in sodium phosphate buffer (0.15 M, pH 7.4) for the duration of the experiment followed by the determination of its radiochemical purity to obtain information on its stability in buffer. […] Aliquots (1.0 mL) were distributed to eight borosilicate disposable culture tubes (13 × 100 mm). […] Radioactivities from six tubes were extracted with 1-octanol. Extraction was performed by vortexing the tubes with their content for 1 min. The tubes were centrifuged for 1 min. The organic and the aqueous phases were separated. Each phase was then sampled 50 μL and 200 μL respectively and counted separately in a well-type γ-counter (model 1480 Wizard; Perkin-Elmer) with an electronic window set between 360 and 1800 keV. The remaining two tubes, contained the radioactivity in buffer and served as stability measures for the radioligand. […] The radiochemical composition of the aqueous buffer after extraction with 1-octanol was determined with HPLC on an X-Terra C18 column (10 μm, 7.8 × 300 mm; Waters Corp., Milford, MA, USA) eluted with MeOH:H2O:Et3N (80:20:0.1 v/v/v) at 4.0 mL/min. […] The resulting radiochromatograms provided correction factors for the γ-counter counts to determine parent radioactivity only (corrected radioactivity). […] LogD7.4 was calculated according to the following formula:(1) logD7.4=log(cpm organic phase/corrected cpm aqueous phase)

[13] = Rat ex vivo measurements (radiometabolites and tissue concentrations); format: in vivo; details: for Unmetabolized [^11C]1: 30 min after i.v. injection
Procedure: The rats were then immediately sacrificed by decapitation, and their cortices, cerebella, and striata were excised. Each of the brain tissues was placed in MeCN (1 mL) and counted in a γ-counter. […] Water (500 μL) was then added and the tissues were further homogenized and counted in the γ-counter for calculating recoveries into MeCN. The homogenates were centrifuged at 10,000× g for 1 min. […] After separating plasma from blood cells, plasma samples (200 μL) were counted in γ-counter and plasma aliquots (450 μL) were each placed in MeCN (720 μL) along with of carrier 1 (5 μg) for deproteinization. After mixing the samples well, H2O (100 μL) was added. The samples were further mixed well, counted in a γ-counter, and centrifuged at 10,000× g for 1 min. Supernatants were injected onto the radio-HPLC and analyzed under the above conditions. All precipitates were counted in the γ-counter for calculating recoveries in the supernatants that were injected onto the HPLC.

[14] = Tissue stability, rat whole blood, plasma and brain homogenate; format: in vitro ADME; details: at least 30 min at 37 °C
Procedure: as §2

[15] = tested on: P-gp/BCRP; assay: PET imaging in wild type and P-gp/BCRP knock-out mice; format: in vivo, mouse
Procedure: as §3, §4

[16] = parameters: method as in PMID 19573609; details: cited from earlier work

O=C(NCCCCN1CCN(c2cccc(Cl)c2O)CC1)c1cc2ccccc2[nH]1 [Compound 2, N-(4-(4-(3-Chloro-2-hydroxyphenyl)piperazin-1-yl)butyl)-1H-indole-2-carboxamide]
melting point: 148 to 149 °C

COc1c(Cl)cccc1N1CCN(CCCCNC(=O)c2cc3ccccc3[nH]2)CC1 [Compound 1, N-(4-(4-(3-chloro-2-methoxyphenyl)piperazin-1-yl)butyl)-1H-indole-2-carboxamide]
Ki [1]: 300 ± 100 nM
Ki [2]: 19.7 ± 1.4 nM
Ki [3]: 2290 ± 340 nM
Ki [4]: 92.3 ± 8 nM

[11CH3]Oc1c(Cl)cccc1N1CCN(CCCCNC(=O)c2cc3ccccc3[nH]2)CC1 [[^11C]1, [O-methyl-^11C]N-(4-(4-(3-Chloro-2-methoxyphenyl)-piperazin-1-yl)butyl)-1H-indole-2-carboxamide]
stability [5]: 100%
stability ([6]; human brain homogenate): 99.8%
stability ([6]; human plasma): 99.3%
cellular uptake in rat whole blood [7]: 55.2 ± 1.1%
fraction unbound at 10 min [8]: 0.0015 ± 0.0001
Peak brain radioactivity concentration ([9]; after tariquidar (16 mg/kg, i.v.)): 3.4 SUV
Peak brain radioactivity concentration ([9]; baseline): 1.1 SUV
change in brain TACs on BP897 challenge ([9]; rats, tariquidar 16 mg/kg i.v., BP897 0.5 mg/kg i.v. 10 min before or 15 min after radioligand): No major changes
change in brain TACs on spiperone challenge ([9]; rats, tariquidar 16 mg/kg i.v., spiperone 1.0 mg/kg i.v. 10 min before or 15 min after radioligand): No obvious changes
peak whole brain radioactivity uptake ([10]; baseline): 2−3 SUV
AUC 0-90 min higher than at baseline ([10]; occipital cortex): ~ 20%
AUC 0-90 min higher than at baseline ([10]; putamen): 70%
radiochemical purity after storage (stability) [11]: 96%
logD [12]: 3.33 ± 0.13
increase of rat brain tissue concentration, tariquidar-treated vs untreated ([13]; ex vivo, 30 min, tariquidar 16 mg/kg i.v.): 2.4–2.6 fold
Unmetabolized [^11C]1 ([13]; rat cerebellum, baseline): 98.8%
[^11C]1 Concentration ([13]; rat cerebellum, baseline, ex vivo 30 min): 1.20 SUV
Unmetabolized [^11C]1 ([13]; rat cerebellum, tariquidar-treated): 98.8%
[^11C]1 Concentration ([13]; rat cerebellum, tariquidar-treated, ex vivo 30 min): 2.84 SUV
Unmetabolized [^11C]1 ([13]; rat cortex, baseline): 99.0%
[^11C]1 Concentration ([13]; rat cortex, baseline, ex vivo 30 min): 1.33 SUV
Unmetabolized [^11C]1 ([13]; rat cortex, tariquidar-treated): 98.7%
[^11C]1 Concentration ([13]; rat cortex, tariquidar-treated, ex vivo 30 min): 3.49 SUV
Unmetabolized [^11C]1 ([13]; rat plasma, baseline): 76% and 76.1%
[^11C]1 Concentration ([13]; rat plasma, baseline, ex vivo 30 min after i.v. injection): 0.06 SUV
[^11C]1 Concentration ([13]; rat plasma, tariquidar-treated (16 mg/kg, i.v.), ex vivo 30 min): 0.04 SUV
Unmetabolized [^11C]1 ([13]; rat plasma, tariquidar-treated): 69% and 68.9%
Unmetabolized [^11C]1 ([13]; rat striatum, baseline): 99.3%
[^11C]1 Concentration ([13]; rat striatum, baseline, ex vivo 30 min): 1.36 SUV
Unmetabolized [^11C]1 ([13]; rat striatum, tariquidar-treated): 98.8%
[^11C]1 Concentration ([13]; rat striatum, tariquidar-treated, ex vivo 30 min): 3.53 SUV
[^11C]1 Concentration ([13]; rat whole blood, baseline, ex vivo 30 min): 0.09 SUV
[^11C]1 Concentration ([13]; rat whole blood, tariquidar-treated, ex vivo 30 min): 0.07 SUV
stability ([14]; rat brain homogenate): 99.4%
stability ([14]; rat plasma): 98.8%
stability ([14]; rat whole blood): 100%
peak brain uptake ([15]; P-gp/BCRP KO mice): 1.6 SUV
efflux transporter substrate behaviour ([15]; rodents): avid brain efflux transporter substrate
peak brain uptake ([15]; wild type mice): 0.7 SUV

C[C@@H](N[C@@H]1C[C@H](c2cccc(O[11CH3])c2)N(c2ccc(C(F)(F)F)cc2)C1=O)c1ccccc1 [[^11C]MePPEP]
plasma free fraction (fp) [16]: 0.05 ± 0.01%
